Assay results reported in patent publication US5336763A, “Trisazo dye and dye composition containing the same” (Orient Chemical Industries, Ltd., priority 1992, dated 1994).
Read-outs that look alike come from different tables or passages of the source.

Assays:
[1] = background; cited from earlier work
strains TA98 = assay type: cell-based; conditions: for AMES evaluation: strains TA98
Experimental: Regarding various specimen solutions respectively containing trisazo dyes obtained in Examples 1 to 11 to the present invention and dyes of Comparative Examples 1 to 3, the number of mutant colonies was determined using strains TA98. 2. When the ratio is less than 2, it is "negative" and, when the ratio is more than 2, it is "positive", and the results are shown in Table. 1.

Compound | Ames test [1] | Ames test: ratio of number of colonies to control (strains TA98; 20 μg/plate, with S-9) | Ames test: ratio of number of colonies to control (strains TA98; 20 μg/plate, without S-9) | Ames test: ratio of number of colonies to control (strains TA98; 78 μg/plate, with S-9) | Ames test: ratio of number of colonies to control (strains TA98; 78 μg/plate, without S-9) | Ames test: ratio of number of colonies to control (strains TA98; 313 μg/plate, with S-9) | Ames test: ratio of number of colonies to control (strains TA98; 313 μg/plate, without S-9) | Ames test: ratio of number of colonies to control (strains TA98; 1250 μg/plate, with S-9) | Ames test: ratio of number of colonies to control (strains TA98; 1250 μg/plate, without S-9) | Ames test: ratio of number of colonies to control (strains TA98; 5000 μg/plate, with S-9) | Ames test: ratio of number of colonies to control (strains TA98; 5000 μg/plate, without S-9) | AMES evaluation (strains TA98)
Nc1ccc(N=Nc2ccc(N=Nc3c(S(=O)(=O)[O-])cc4cc(S(=O)(=O)[O-])c(N=Nc5ccc(N=Nc6ccc(N)cc6N)cc5)c(O)c4c3N)cc2)c(N)c1.[Na+].[Na+] [C.I. Direct Black 19] | false positive or positive | – | – | – | – | – | – | – | – | – | – | –
Cc1cc(-c2ccc(N=Nc3c(S(=O)(=O)[O-])cc4cc(S(=O)(=O)[O-])c(N=Nc5ccccc5)c(O)c4c3N)c(C)c2)ccc1N=Nc1ccc(N)cc1N.[Na+].[Na+] [C.I. Direct Black 154] | false positive or positive | – | – | – | – | – | – | – | – | – | – | –
Cc1cc(-c2ccc(N=Nc3c(S(=O)(=O)O)cc4cc(S(=O)(=O)O)c(N=Nc5ccccc5)c(O)c4c3N)c(C)c2)ccc1N=Nc1ccc(N)cc1N [compound 1, reference compound] | – | 1.92 | 0.72 | 2.35 | 0.68 | 2.50 | 0.84 | 1.50 | 0.76 | 0.85 | 0.96 | Positive (when the ratio is more than 2, it is "positive")
Nc1ccc(N=Nc2ccc(S(=O)(=O)c3ccc(N=Nc4c(S(=O)(=O)O)cc5cc(S(=O)(=O)O)c(N=Nc6ccccc6)c(O)c5c4N)cc3)cc2)c(O)c1 [compound 2, reference compound] | – | 5.26 | 1.10 | 26.3 | 1.52 | 9.11 | 1.29 | 1.23 | 1.38 | 1.61 | 3.38 | Positive (when the ratio is more than 2, it is "positive")
Cc1cc(-c2ccc(N=Nc3c(S(=O)(=O)O)cc4cc(S(=O)(=O)O)c(N=Nc5ccc(S(=O)(=O)O)cc5)c(O)c4c3N)c(C)c2)ccc1N=Nc1ccc(O)cc1O [compound 3, reference compound] | – | 1.20 | 0.92 | 2.24 | 1.00 | 4.16 | 2.56 | 1.12 | 3.56 | 0.16 | 0.96 | Positive (when the ratio is more than 2, it is "positive")
C.I. Direct Black 168 | false positive or positive | – | – | – | – | – | – | – | – | – | – | –
